Assay results: patent EP3506874B1, “A PERSONAL CARE COMPOSITION” (Unilever N.V., priority 2016, dated 2018)

Tests used:
[1] = system: THP1-XBlue™ cells; experiment: Anti-inflammation THP-1 in vitro assay: LPS-induced IL-6 by ELISA; format: cell-based
Experimental: The following procedure was used to test the anti-inflammation efficacy of the various actives alone or in combination. THP1-XBlue™ (Cat No: thpx-sp, InvivoGen) cells were cultured as suspense in RPMI 1640 medium supplemented with 10% FBS, penicillin (10 U/mL) - streptomycin (10 µg/ML). Cells were differentiated in 24-well plates at the density of 5 x 10^5 cells / well with 100 nM PMA for 72 h. Cells were then co-treated with pure E. coli lipopolysaccharides (LPS) and single concentration or a combination of 6-gingerdiol and niacinamide at different doses. After 24 h, the supernatants were collected measured for interleukin (IL)-6 as pro-inflammatory bio-marker using enzyme-linked immunosorbent assay (ELISA).

[2] = system: Primary adult human keratinocytes (HEKa); experiment: 2-D Dandruff Model: triple cytokine mix (IL-17, IL-22, TNFα) induced IL-8 by ELISA, normalised to protein; format: cell-based; conditions: with triple cytokine mix, mix alone 744.83
Experimental: Primary adult human keratinocytes (HEKa) frozen at passage 1 were purchased from Invitrogen (Cat no […]). They were thawed into KGM Gold (Lonza cat no 00195769) made up with all components of the accompanying bullet kit plus 70μM calcium (from a stock solution of 200mM calcium chloride), placed in a T75 tissue culture flask and grown to 70-80% confluence. The cells were passaged and again grown to 70-80% confluence. At passage 3 the cells were washed with calcium and magnesium free PBS (Life Technologies cat no 14190-094) and removed from the flask using trypsin-EDTA (Life Technologies cat no 25300-054) and washed by centrifugation with trypsin neutralising solution (Life Technologies cat no R-002-100). The cell pellet was re-suspended in KGM Gold plus 70μM calcium and containing the bullet kit components but omitting the gentamycin and hydrocortisone (referred to as plating medium). The cells were plated into 24-well plates at a density of 2x10^4 cells/well and allowed to settle for 24 hours prior to treatment. The medium is removed from the cells and replace by 0.5ml plating medium containing […], […] and […] TNFα together with the active at the required concentration. A concentration range can be done. Also included are an untreated control, a vehicle control and a triple cytokine mix without active all in triplicate. The plates are incubated for a further 16 to 24 hours. In this case the actives were 6-gingerdiol and a selection of curcuminoids. The medium is harvested for IL-8 ELISA (R &D Systems Duoset kit cat no DY208) and the cells lysed for protein assay (Pierce BCA Protein Assay Kit Life Technologies cat no 23225) in order to normalise IL-8 to protein.

[3] = Solubility in organic solvents; format: physicochemical; conditions: commonly used organic solvents such as alcohols, ethers, esters, acetonitrile, chloroform, dichloromethane, dimethylformamide, dimethylsulfoxide

solubility [3]	SMILES	Concentration of IL-6 ([1]; 1.25 µM of 6-gingerdiol, with LPS, LPS alone 46137)	Concentration of IL-6 ([1]; 10 µM of 6-gingerdiol, co-treated with LPS, 24 h, LPS alone 10547)	Concentration of IL-8 ([2]; 5 µM of 6-gingerdiol)	Concentration of IL-8 ([2]; 10 µM of 6-gingerdiol)	Concentration of IL-8 ([2]; 20 µM of 6-gingerdiol)	Concentration of IL-6 ([1]; 0.5 mM niacinamide, with LPS, LPS alone 46137)	Concentration of IL-6 ([1]; 1 mM of niacinamide, with LPS, LPS alone 46137)	Concentration of IL-6 ([1]; 16 mM of niacinamide, co-treated with LPS, 24 h, LPS alone 10547)	Concentration of IL-8 ([2]; 10 mM of niacinamide)
soluble	CCCCCC(O)CC(O)CCc1ccc(O)c(OC)c1 (stereo not shown) [6-gingerdiol, 1-(4-hydroxy-3-methoxyphenyl)decane-3,5-diol]	37212 pg/mL	8781 pg/mL	347.99 pg/100µgprotein	446.85 pg/100µgprotein	390.31 pg/100µgprotein	–	–	–	–
–	NC(=O)c1cccnc1 [niacinamide]	–	–	–	–	–	41688 pg/mL	39894 pg/mL	6031 pg/mL	408.30 pg/100µgprotein
